Test results taken from patent US11376271B1, “Methods of ameliorating the effects of alcoholic liver damage” (FULGENT LIFE INC., priority 2021, dated 2022).

Columns and labels:
male C57BL/6J mice [1] = experiment: Liver MDA and SOD after acute alcohol ingestion; type: in vivo; conditions: 500 mg/kg intragastric 15 min prior to 8 ml/kg ethanol; liver 6 h after alcohol
Procedure: Six hours after treatment with alcohol, liver tissues were taken for determination of MDA and SOD. Liver samples were prepared with homogenization in cold isotonic saline. The homogenate (10%, w/v) was centrifuged at 4500 g for 10 minutes and the supernatant was used for biochemical analysis. The MDA, SOD and TG levels were determined with commercial kits (Abcam, #ab118970; Thermofisher, #EIASODC and Abcam, ab65336) according to the manufacturer's instructions. The results were normalized to the total protein determined by BCA Protein Assay Kit (Abcam, #ab102536) according to the manufacturer's instructions.

male C57BL/6J mice [2] = experiment: Liver NAD+/NADH ratio after ethanol administration; type: in vivo; conditions: 500 mg/kg intragastric 15 min before 8 ml/kg ethanol (40% w/v)
Procedure: The ratio of NAD^+/NADH in the liver was then measured at different times after ethanol administration. The NAD^+/NADH ratios were detected using a NAD+/NADH Quantification Colorimetric Kit (ABIN411692) in compliance with the manufacturer's instructions. Fresh tissue lysate was prepared from snap cryo-frozen liver samples stored in […], and 20 mg liver was homogenized with NAD^+/NADH extraction buffer (400 μL). In order to quickly remove enzymes that may consume NADH, the samples were filtered through a 10 kD molecular weight cut-off filter before detection. […] Concentrations were calculated using an NADH standard curve.

AML12 cells [3] = experiment: Rescue from hydrogen peroxide (HP) genotoxicity: cell survival and NAD+ level; type: cell-based; conditions: 3 h
Procedure: Because the increasing extent of NAD+ concentration is of interest, whether NADH can improve the cell survival rate under the stressful conditions of depletion of NAD+ was also assessed. To that end, as genotoxicity can lead to DNA damage, activate poly(ADP-ribose) polymerases and induce NAD+ depletion, genotoxicity was tested. Strong genotoxicity will lead to severe consumption of NAD+ by cells, resulting in cell death. To test genotoxicity, AML12 cells were treated with 500 μM hydrogen peroxide (HP) for 3 hours in the presence or absence of 1 mM NADH, and then the cells were counted and NAD+ was detected in the samples co-treated with NADH (1 mM) or its vehicle. FIG. 4A is a graph comparing the cell survival rate of the HP treated cells, NADH treated cells, and the HP+NADH treated cells relative to a control. And FIG. 4B is a graph comparing the NAD+ level of the HP treated cells, NADH treated cells, and the HP+NADH treated cells relative to a control. The cell survival rates and cellular NAD+ levels in FIGS. 4A-B are expressed as mean±SD.
The effects of NADH and NMN at a lower concentration (250 μM) on AML12 cells was also tested in a separate assay. Specifically, AML12 cells were treated with 500 μM HP in the presence or absence of 250 μm NADH or NMN for 3 h. FIG. 4C is a graph comparing the cell survival rate of the HP treated cells, HP+NADH treated cells, and the HP+NMN treated cells relative to a control. And FIG. 4D is a graph comparing the NAD+ level of the HP treated cells, HP+NADH treated cells, and the HP+NMN treated cells relative to a control. The cell survival rate and cellular NAD+ levels in FIGS. 4C-D are expressed as mean±SD.

hepatocyte AML12 cells = experiment: NADH dose-response and time course of NAD+ levels in AML12 cells; type: cell-based
Procedure: Also, cells were cultured as follows.
A dose-response curve was also determined for hepatocyte AML12 cells. These cells were treated with rising concentrations of NADH for 3 h. […] (n=3). *, p<0.01; **, p<0.001 vs Control.
Time course studies for NADH action were also carried out. AML12 cells were incubated with NADH for various incubation times (0-12 hr) and then harvested, and the NAD+ levels were assessed. […] (n=3). *, p<0.01; **, p<0.001 vs Control.

male C57BL/6J mice [4] = experiment: Loss of righting reflex (LORR) test; type: in vivo; conditions: 500 mg/kg intragastric 15 min prior to 8 ml/kg ethanol
Source text: Alcohol acts on the central nervous system, causing various behavioral and/or cognitive problems, e.g., loss of righting reflex (LORR). […] LORR is defined as the phenomenon that mice cannot correct themselves three times within 30 seconds after alcohol intake. LORR latency is defined as the time from drinking to occurrence of LORR, and LORR duration is defined as the time from occurrence to recovery of LORR.
Fisher's exact probability test was used to analyze the loss of righting reflex (LORR) in the mice. […] The data representing LORR latency and duration are expressed as mean±SD (n=10); *p<0.05 vs alcohol group.

[5] = tested on: mammalian cell lines (insulinogenic (MING), neuronlike (LN229), muscle-like (C2C12), and normal hepatocyte (AML12) cells); experiment: NAD+ levels in mammalian cell lines treated with NADH, NRH or NMN; conditions: 1 mM, 3 h; all cell lines
Procedure: Also, cells were cultured as follows. LN229, Neuro2a, and C2C12 cells were grown in Dulbecco's modified Eagle's medium (DMEM) supplemented with 10% fetal bovine serum (FBS), 100 units/ml penicillin, and 100 μg/ml streptomycin. […] AML12 cells were cultured in a 1:1 mixture of DMEM high glucose/Ham's F-12 with I-glutamine and supplemented with 10% FCS, 15 mM HEPES, 40 ng/ml dexamethasone, 0.005 mg/ml human recombinant insulin, 5 ng/ml sodium selenite and 0.005 mg/ml transferrin (Sigma Aldrich).
The cells were seeded in 6-well plates until they reached approximately 80% confluence. […] The number of cells was counted by hemocytometer and trypan blue. The harvested cells were then pelleted at 3000×g for 3 min. After eliminating the residual medium, the cells were lysed with 7% perchloric acid to preserve NAD+, and then neutralized with NaOH (2 M) and K2HPO4 (500 mM).

AML12 cells [6] = experiment: NAD+/NADH ratio in AML12 cells; conditions: 1 mM, 6 h, vs control
male C57BL/6J mice [7] = experiment: Plasma AST and ALT in acute alcohol-induced hepatotoxicity; type: in vivo
Procedure: Liver marker enzymes in plasma, such as aspartate transaminase (AST) and alanine aminotransferase (ALT), are known as sensitive biochemical markers of early liver damage. […] Six hours after treatment with alcohol, blood samples were taken to detect biochemical indexes. […] The control group was given the same amount of normal saline in place of the ethanol. […] The plasma levels of AST and ALT were determined by collecting blood samples in an anti-coagulant test tube and centrifuging at 1500 rpm for 10 minutes to attain plasma. The plasma AST and ALT activity was determined with a commercial kit (from Sigma-Aldrich) based on the manufacturer's instructions.

AML12 cells [8] = experiment: Apoptosis markers Annexin V and Caspase 3/7 by flow cytometry; type: cell-based; conditions: 1 mM, 24 hours
Procedure: To assess this toxicity, C2C12, Neuro2a and AML12 cells were treated with 1 mM NADH for 24 hours, and then the total cell numbers were measured. […] The cells were stained with trypan blue and then counted with a hemocytometer. […] The Annexin V/PI staining kit and Caspases3/7/SYTOX dead cell staining kit (Life Technologies) were used and cells were counted with a BD FACSCelesta™ flow cytometer. The quadrants of apoptotic cells, necrotic cells and living cells were identified and quantified according to the manufacturer's instructions.
To examine apoptotic markers, AML12 cells were stained for Annexin V and Caspase 3/7, and cells were counted with a flow cytometer. […] Data are expressed as mean±SD, n=3. Quadrants with live cells (brown), necrotic cells (gray) and apoptotic cells (blue) were quantified.

[9] = 500 μM HP + 250 μM compound, AML12 cells
[10] = 500 mg/kg intragastric 30 min prior to 8 ml/kg ethanol (40% w/v), blood 6 h after alcohol
[11] = 40% ethanol every 24 h for 3 days, then 500 mg/kg every day for three days

NC(=O)C1=CN([C@@H]2O[C@H](COP(=O)(O)OP(=O)(O)OC[C@H]3O[C@@H](n4cnc5c(N)ncnc54)C(O)C3O)C(O)C2O)C=CC1 (stereo partly drawn) [NADH, nicotinamide adenine dinucleotide (NAD)+hydrogen (H)]
MDA content in the liver (male C57BL/6J mice [1]): significantly reduce
SOD activity in the liver (male C57BL/6J mice [1]): increase
ethanol-induced decrease of liver NAD+/NADH redox ratio (male C57BL/6J mice [2]): significantly inhibited this decrease
effect on NAD+ levels under HP (AML12 cells [3]; [9]): protective effect
effect on cell survival under HP (AML12 cells [3]; [9]): protective effect
NAD+ level in HP co-treated cells (AML12 cells [3]; 500 μM HP + 1 mM NADH, AML12 cells): remained high
cell survival rate under HP+NADH treatment (AML12 cells [3]; 500 μM HP + 1 mM NADH, AML12 cells (HP alone 12%)): ~72%
concentration of NAD+ relative to the control group (hepatocyte AML12 cells; 50 μM NADH, 3 h): approximately 4 times
concentration of NAD+ relative to the untreated control group (saturation) (hepatocyte AML12 cells; 500 μM NADH, 3 h): 10 times
time after which full NAD+ increasing effects were present (hepatocyte AML12 cells; 1 mM NADH): 3 h
time at which NAD+ concentration-increasing effects appeared (hepatocyte AML12 cells; 1 mM NADH): 0.5 h
NAD+ after 12 hours of treatment (hepatocyte AML12 cells; 1 mM NADH, 12 h): remained at a high concentration
LORR duration relative to the model group (male C57BL/6J mice [4]): one third
LORR duration vs model group (male C57BL/6J mice [4]): decrease
LORR latency vs model group (male C57BL/6J mice [4]): prolonged
average LORR latency relative to the model group (male C57BL/6J mice [4]): 4 times
share of mice that had a righting reflex after drinking alcohol (male C57BL/6J mice [4]): less than half
LORR rate vs model group (male C57BL/6J mice [4]; model group 100%): decrease
average LORR latency (male C57BL/6J mice [4]; model group 14.76 minutes): 60.24 min
LORR duration (male C57BL/6J mice [4]; model group about 798.68 minutes): 265.00 min
induced NAD+ levels compared with NMN [5]: much higher than those induced by NMN
NAD+/NADH ratio (AML12 cells [6]): significantly increase
plasma ALT level, pre-treatment (male C57BL/6J mice [7]; [10]): significantly reduce
plasma AST level, pre-treatment (male C57BL/6J mice [7]; [10]): significantly reduce
plasma ALT level, treatment after alcohol exposure (male C57BL/6J mice [7]; [11]): significantly reduce
plasma AST level, treatment after alcohol exposure (male C57BL/6J mice [7]; [11]): significantly reduce
Annexin V or caspase 3/7 apoptosis markers vs control (AML12 cells [8]): no significant changes
